The text below walks through data of patent publication US12234221B2, “Pyridine carboxamide compounds for inhibiting NAV1.8” (Lieber Institute, Inc., priority 2018, dated 2025).

Each structure is given as a SMILES string.

For this assay, the target named is T1, human Nav1.8 (hNav1.8) ion channel (Homo sapiens, UniProt Q9Y5Y9).
T1 construct: expressed in transfected cells; host or cells: HEK293
T1 sequence (Q9Y5Y9 whole entry): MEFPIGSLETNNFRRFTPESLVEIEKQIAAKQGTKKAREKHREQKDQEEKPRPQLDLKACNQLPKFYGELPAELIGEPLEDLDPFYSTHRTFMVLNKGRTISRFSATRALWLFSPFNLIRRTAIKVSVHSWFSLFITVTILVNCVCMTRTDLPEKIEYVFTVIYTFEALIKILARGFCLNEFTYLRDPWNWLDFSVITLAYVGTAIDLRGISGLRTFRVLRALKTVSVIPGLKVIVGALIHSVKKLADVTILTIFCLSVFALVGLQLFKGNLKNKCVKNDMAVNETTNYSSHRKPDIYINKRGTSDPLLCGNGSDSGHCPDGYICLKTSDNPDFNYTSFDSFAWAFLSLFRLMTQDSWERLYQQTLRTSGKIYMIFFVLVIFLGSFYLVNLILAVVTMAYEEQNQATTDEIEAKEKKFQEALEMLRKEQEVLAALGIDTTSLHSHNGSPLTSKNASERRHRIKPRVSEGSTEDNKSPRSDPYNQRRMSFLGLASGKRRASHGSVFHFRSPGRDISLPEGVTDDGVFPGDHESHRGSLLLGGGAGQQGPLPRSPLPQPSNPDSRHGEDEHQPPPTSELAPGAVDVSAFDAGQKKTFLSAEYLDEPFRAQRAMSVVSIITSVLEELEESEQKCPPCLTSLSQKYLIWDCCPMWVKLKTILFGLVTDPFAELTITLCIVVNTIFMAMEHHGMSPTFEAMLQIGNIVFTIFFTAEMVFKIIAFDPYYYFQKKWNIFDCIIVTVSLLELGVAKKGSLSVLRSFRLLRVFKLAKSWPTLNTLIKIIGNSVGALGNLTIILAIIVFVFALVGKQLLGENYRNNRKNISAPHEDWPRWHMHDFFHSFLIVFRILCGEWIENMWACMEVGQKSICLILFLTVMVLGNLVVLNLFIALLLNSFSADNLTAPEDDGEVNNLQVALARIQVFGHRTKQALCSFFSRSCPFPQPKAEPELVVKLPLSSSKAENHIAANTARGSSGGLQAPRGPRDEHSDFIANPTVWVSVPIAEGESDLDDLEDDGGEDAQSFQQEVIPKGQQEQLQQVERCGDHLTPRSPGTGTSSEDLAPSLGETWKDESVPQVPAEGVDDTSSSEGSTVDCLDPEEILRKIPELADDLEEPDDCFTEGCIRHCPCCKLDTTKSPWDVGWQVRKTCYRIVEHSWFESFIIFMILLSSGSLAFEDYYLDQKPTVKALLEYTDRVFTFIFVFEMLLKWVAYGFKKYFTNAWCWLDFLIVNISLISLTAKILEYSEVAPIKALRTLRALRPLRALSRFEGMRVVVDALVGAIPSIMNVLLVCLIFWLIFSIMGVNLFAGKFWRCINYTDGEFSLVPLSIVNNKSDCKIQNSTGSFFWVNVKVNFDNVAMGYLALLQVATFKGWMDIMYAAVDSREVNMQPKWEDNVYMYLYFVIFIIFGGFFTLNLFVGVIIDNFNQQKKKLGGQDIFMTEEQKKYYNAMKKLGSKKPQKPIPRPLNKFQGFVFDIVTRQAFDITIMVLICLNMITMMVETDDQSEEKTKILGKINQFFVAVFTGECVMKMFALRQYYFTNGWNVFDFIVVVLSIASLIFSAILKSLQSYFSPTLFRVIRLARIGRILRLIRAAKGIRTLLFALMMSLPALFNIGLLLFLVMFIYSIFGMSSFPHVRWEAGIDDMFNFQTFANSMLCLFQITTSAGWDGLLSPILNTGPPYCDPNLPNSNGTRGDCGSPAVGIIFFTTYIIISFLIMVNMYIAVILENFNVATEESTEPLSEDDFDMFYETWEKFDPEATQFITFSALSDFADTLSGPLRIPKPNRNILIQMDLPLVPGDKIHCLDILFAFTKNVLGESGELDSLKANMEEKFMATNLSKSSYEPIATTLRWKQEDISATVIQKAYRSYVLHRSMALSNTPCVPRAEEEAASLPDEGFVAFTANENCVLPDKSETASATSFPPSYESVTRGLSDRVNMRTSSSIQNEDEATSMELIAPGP
Briefly: Nav1.8 channel inhibition, estimated IC50 (one or more of: fluorescence inhibition assay, PatchXpress, IonFlux HT automated patch clamp). Type of assay: cell-based. The following applies: HEK293 cells stably expressing hNav1.8; method used per compound not stated; read-out: Activity range (estimated IC50). Summed up:
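HEK293 cells stably expressing hNav1.8 with β1/β2 subunits; IC50 from the fluorescence assay and/or automated whole-cell patch clamp (PatchXpress, IonFlux HT). Fluorescence: ANG-2 Na dye, 5 min compound preincubation (0.02–5 μM, 1% DMSO) with 30 μM ouabain, stimulation by 10 μM deltamethrin, peak signal fit logistically. PatchXpress: holding potential reset to Vhalf, inhibition normalized to control/washout currents.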
For orientation: IC50 means the concentration needed to halve the response being measured. `CS(=N)(=O)c1cccc(NC(=O)c2cnc(C(F)(F)F)cc2Oc2ccc(OC(F)(F)F)cc2Cl)c1` (stereo not drawn) [Example 80, 4-[2-chloro-4-(trifluoromethoxy)phenoxy]-N-[3-(methylsulfonimidoyl)phenyl]-6-(trifluoromethyl)pyridine-3-carboxamide]: the IC50 was below 500 nM.
The same measure for `NC(=O)c1cccc(NC(=O)c2cnc(C(F)(F)F)cc2Oc2ccc(OC(F)(F)F)cc2Cl)c1` [Example 81, N-(3-carbamoylphenyl)-4-[2-chloro-4-(trifluoromethoxy)phenoxy]-6-(trifluoromethyl)pyridine-3-carboxamide]: below 500 nM; for `CN=S(C)(=O)c1cccc(NC(=O)c2cnc(C(F)(F)F)cc2Oc2ccc(OC(F)(F)F)cc2Cl)c1` (stereo not drawn) [Example 82, 4-[2-chloro-4-(trifluoromethoxy)phenoxy]-N-[3-(N,S-dimethylsulfonimidoyl)phenyl]-6-(trifluoromethyl)pyridine-3-carboxamide]: below 500 nM.
For `O=C(Nc1ccc[n+]([O-])c1)c1cnc(C(F)(F)F)cc1Oc1ccc(OC(F)(F)F)cc1Cl` [Example 83, 4-[2-chloro-4-(trifluoromethoxy)phenoxy]-N-(1-oxidopyridin-1-ium-3-yl)-6-(trifluoromethyl)pyridine-3-carboxamide] the value was below 500 nM; for `COc1cc(F)ccc1Oc1cc(C(F)(F)F)ncc1C(=O)Nc1ccc[n+]([O-])c1` [Example 84, 4-(4-fluoro-2-methoxy-phenoxy)-N-(1-oxidopyridin-1-ium-3-yl)-6-(trifluoromethyl)pyridine-3-carboxamide], 500 to 1000 nM.
The same measure for `Cc1cc(F)ccc1Oc1cc(C(F)(F)F)ncc1C(=O)Nc1ccc[n+]([O-])c1` [Example 85, 4-(4-fluoro-2-methyl-phenoxy)-N-(1-oxidopyridin-1-ium-3-yl)-6-(trifluoromethyl)pyridine-3-carboxamide]: 500 to 1000 nM.
On to `O=C(Nc1ccc[n+]([O-])c1)c1cnc(C(F)(F)F)cc1Oc1ccc(OC(F)F)cc1` [Example 86, 4-[4-(difluoromethoxy)phenoxy]-N-(1-oxidopyridin-1-ium-3-yl)-6-(trifluoromethyl)pyridine-3-carboxamide], for which the IC50 was 500 to 1000 nM.
Take `O=C(Nc1ccc[n+]([O-])c1)c1cnc(C(F)(F)F)cc1Oc1ccc(OC(F)(F)F)cc1` [Example 87, N-(1-oxidopyridin-1-ium-3-yl)-4-[4-(trifluoromethoxy)phenoxy]-6-(trifluoromethyl)pyridine-3-carboxamide]: the half-inhibitory concentration (IC50) was below 500 nM.
The same measure for `COc1ccc(Oc2cc(C(F)(F)F)ncc2C(=O)Nc2ccc[n+]([O-])c2)c(OC)c1` [Example 88, 4-(2,4-dimethoxyphenoxy)-N-(1-oxidopyridin-1-ium-3-yl)-6-(trifluoromethyl)pyridine-3-carboxamide]: below 500 nM; for `O=C(Nc1ccc[n+]([O-])c1)c1cnc(C(F)(F)F)cc1Oc1ccc(F)cc1F` [Example 89, 4-(2,4-difluorophenoxy)-N-(1-oxidopyridin-1-ium-3-yl)-6-(trifluoromethyl)pyridine-3-carboxamide]: above 1000 nM.
Turning to `CS(=N)(=O)c1cccc(NC(=O)c2cnc(C(F)(F)F)cc2Oc2ccc(OC(F)(F)F)cc2)c1` (stereo not drawn) [Example 91, N-[3-(methylsulfonimidoyl)phenyl]-4-[4-(trifluoromethoxy)phenoxy]-6-(trifluoromethyl)pyridine-3-carboxamide], the IC50 was below 500 nM.
The same measure for `CN=S(C)(=O)c1cccc(NC(=O)c2cnc(C(F)(F)F)cc2Oc2ccc(OC(F)(F)F)cc2)c1` (stereo not drawn) [Example 92, N-[3-(N,S-dimethylsulfonimidoyl)phenyl]-4-[4-(trifluoromethoxy)phenoxy]-6-(trifluoromethyl)pyridine-3-carboxamide]: below 500 nM; for `Cc1cc(F)ccc1Oc1cc(C(F)(F)F)ncc1C(=O)Nc1cccc(S(C)(=N)=O)c1` (stereo not drawn) [Example 93, 4-(4-fluoro-2-methyl-phenoxy)-N-[3-(methylsulfonimidoyl)phenyl]-6-(trifluoromethyl)pyridine-3-carboxamide]: above 1000 nM; for `CN=S(C)(=O)c1cccc(NC(=O)c2cnc(C(F)(F)F)cc2Oc2ccc(F)cc2C)c1` (stereo not drawn) [Example 94, N-[3-(N,S-dimethylsulfonimidoyl)phenyl]-4-(4-fluoro-2-methyl-phenoxy)-6-(trifluoromethyl)pyridine-3-carboxamide]: below 500 nM.
With `Cc1cc(F)ccc1Oc1cc(C(F)(F)F)ncc1C(=O)Nc1ccnnc1` [Example 95, 4-(4-fluoro-2-methyl-phenoxy)-N-pyridazin-4-yl-6-(trifluoromethyl)pyridine-3-carboxamide], the IC50 is below 500 nM.
Regarding `O=C(Nc1ccnnc1)c1cnc(C(F)(F)F)cc1Oc1ccc(OC(F)(F)F)cc1` [Example 96, N-pyridazin-4-yl-4-[4-(trifluoromethoxy)phenoxy]-6-(trifluoromethyl)pyridine-3-carboxamide], the IC50 was 500 to 1000 nM.
The same measure for `O=C(Nc1ccnnc1)c1cnc(C(F)(F)F)cc1Oc1ccc(OC(F)F)cc1` [Example 97, 4-[4-(difluoromethoxy)phenoxy]-N-pyridazin-4-yl-6-(trifluoromethyl)pyridine-3-carboxamide]: above 1000 nM; for `O=C(Nc1ccnnc1)c1cnc(C(F)(F)F)cc1Oc1ccc(OC(F)(F)F)cc1Cl` [Example 98, 4-[2-chloro-4-(trifluoromethoxy)phenoxy]-N-pyridazin-4-yl-6-(trifluoromethyl)pyridine-3-carboxamide]: below 500 nM.
`COc1ccc(Oc2cc(C(F)(F)F)ncc2C(=O)Nc2ccnnc2)c(OC)c1` [Example 99, 4-(2,4-dimethoxyphenoxy)-N-pyridazin-4-yl-6-(trifluoromethyl)pyridine-3-carboxamide]: the IC50 is below 500 nM.
The same measure for `O=C(Nc1ccnnc1)c1cnc(C(F)(F)F)cc1Oc1ccc(F)cc1F` [Example 100, 4-(2,4-difluorophenoxy)-N-pyridazin-4-yl-6-(trifluoromethyl)pyridine-3-carboxamide]: above 1000 nM.
For `COc1ccc(Oc2cc(C(F)(F)F)ncc2C(=O)Nc2cccc(S(C)(=N)=O)c2)c(OC)c1` (stereo not drawn) [Example 102, 4-(2,4-dimethoxyphenoxy)-N-[3-(methylsulfonimidoyl)phenyl]-6-(trifluoromethyl)pyridine-3-carboxamide] the value was above 1000 nM.
For `CS(=N)(=O)c1cccc(NC(=O)c2cnc(C(F)(F)F)cc2Oc2ccc(F)cc2F)c1` (stereo not drawn) [Example 103, 4-(2,4-difluorophenoxy)-N-[3-(methylsulfonimidoyl)phenyl]-6-(trifluoromethyl)pyridine-3-carboxamide] the value was above 1000 nM; for `COc1cc(NC(=O)c2cc(C(F)(F)F)cnc2Oc2ccc(F)cc2C)ccn1` [Example 109, 2-(4-fluoro-2-methyl-phenoxy)-N-(2-methoxy-4-pyridyl)-5-(trifluoromethyl)pyridine-3-carboxamide], above 1000 nM; for `Cc1cc(F)ccc1Oc1ncc(C(F)(F)F)cc1C(=O)Nc1cc[nH]c(=O)c1` [Example 110, 2-(4-fluoro-2-methyl-phenoxy)-N-(2-oxo-1H-pyridin-4-yl)-5-(trifluoromethyl)pyridine-3-carboxamide], above 1000 nM.
`COc1cc(F)ccc1Oc1ncc(Br)cc1C(=O)Nc1cccc(S(C)(=O)=O)c1` [Example 111, 5-bromo-2-(4-fluoro-2-methoxy-phenoxy)-N-(3-methylsulfonylphenyl)pyridine-3-carboxamide]: the IC50 is above 1000 nM.
For `COc1cc(F)ccc1Oc1ncc(C2CC2)cc1C(=O)Nc1cccc(S(C)(=O)=O)c1` [Example 112, 5-cyclopropyl-2-(4-fluoro-2-methoxy-phenoxy)-N-(3-methylsulfonylphenyl)pyridine-3-carboxamide] the value was above 1000 nM; for `Cc1cc(F)ccc1Oc1ncc(C(F)(F)F)cc1C(=O)Nc1cccc(S(C)(=O)=O)c1` [Example 113, 2-(4-fluoro-2-methyl-phenoxy)-N-(3-methylsulfonylphenyl)-5-(trifluoromethyl)pyridine-3-carboxamide], 500 to 1000 nM.
With `CN=S(C)(=O)c1cccc(NC(=O)c2cc(C(F)(F)F)cnc2Oc2ccc(F)cc2C)c1` (stereo not drawn) [Example 114, N-[3-(N,S-dimethylsulfonimidoyl)phenyl]-2-(4-fluoro-2-methyl-phenoxy)-5-(trifluoromethyl)pyridine-3-carboxamide], the IC50 is below 500 nM.
For `Cc1cc(F)ccc1Oc1ncc(C(F)(F)F)cc1C(=O)Nc1cccc(S(C)(=N)=O)c1` (stereo not drawn) [Example 115, 2-(4-fluoro-2-methyl-phenoxy)-N-[3-(methylsulfonimidoyl)phenyl]-5-(trifluoromethyl)pyridine-3-carboxamide] the value was below 500 nM; for `Cc1cc(F)ccc1Oc1ncc(C(F)(F)F)cc1C(=O)Nc1ccnnc1` [Example 116, 2-(4-fluoro-2-methyl-phenoxy)-N-pyridazin-4-yl-5-(trifluoromethyl)pyridine-3-carboxamide], above 1000 nM; for `COc1cc(F)ccc1Oc1nc(C)ccc1C(=O)Nc1cccc(S(C)(=O)=O)c1` [Example 117, 2-(4-fluoro-2-methoxy-phenoxy)-6-methyl-N-(3-methylsulfonylphenyl)pyridine-3-carboxamide], above 1000 nM.
The same measure for `COc1cc(F)ccc1Oc1nc(C)c(C)cc1C(=O)Nc1cccc(S(C)(=O)=O)c1` [Example 118, 2-(4-fluoro-2-methoxy-phenoxy)-5,6-dimethyl-N-(3-methylsulfonylphenyl)pyridine-3-carboxamide]: below 500 nM; for `COc1cc(F)ccc1Oc1ncc(Cl)cc1C(=O)Nc1cccc(S(C)(=O)=O)c1` [Example 119, 5-chloro-2-(4-fluoro-2-methoxy-phenoxy)-N-(3-methylsulfonylphenyl)pyridine-3-carboxamide]: 500 to 1000 nM.
